Laboratory results from patent US6218393A, “Anthranilic acid derivatives as multi drug resistance modulators” (priority 1997, dated 2001).

Tests used:
[1] = tested on: AR 1.0 cells; assay: Potentiation of doxorubicin toxicity: proliferation assay (sulphorhodamine B); assay type: cell-based, mouse
Source text: (a) Selected compounds of formula (I) were examined for their ability to potentiate the toxicity of doxorubicin in AR 1.0 cells.

[2] = tested on: AR 1.0 cells; assay: Potentiation index with doxorubicin titration; assay type: cell-based, mouse; conditions: for Potentiation Index at RMA concentration 30 nM: Table C2, RMA 30 nM; for Potentiation Index at RMA concentration 100 nM: Table C2, RMA 100 nM; for Potentiation Index at RMA concentration 300 nM: Table C2, RMA 300 nM; for Potentiation Index at RMA concentration 500 nM: Table C2, RMA 500 nM; for Potentiation Index at RMA concentration 10 nM: Table C2, RMA 10 nM
Outline: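 Doxorubicin IC50 in AR 1.0 cells (MDR subline of EMT6 mouse mammary carcinoma) determined by sulphorhodamine B after 4-day culture across 0.263 nM-17.24 μM, with and without a fixed dose of test compound; their ratio gives the PI.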

[3] = tested on: AR 1.0 cells; assay: Drug accumulation assay: daunorubicin accumulation in AR 1.0 cells; assay type: cell-based; conditions: Mus musculus, 100% = accumulation with verapamil 100 μM, 1 hr, 37° C.
Outline: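 Daunorubicin accumulation was measured in cells plated 48 h beforehand. These were AR 1.0 cells, an MDR-resistant derivative of mouse EMT6 mammary carcinoma, cultured at 37 °C in 5% CO2 in RPMI 1640 plus 10% foetal calf serum and 2 mM glutamine.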

[4] = Mus musculus, 96 h, compound alone, four day proliferation, read-out: Compound Toxicity (IC50)
[5] = with fixed doxorubicin 0.34 μm, four days, 5760 min, read-out: Toxicity with Cytotoxic Agent (IC50)

Compound | IC50 [1, 4] | IC50 [1, 5] | Potentiation Index at RMA concentration 30 nM [2] | Potentiation Index at RMA concentration 100 nM [2] | Potentiation Index at RMA concentration 300 nM [2] | IC50 [3] | Potentiation Index at RMA concentration 500 nM [2] | Potentiation Index at RMA concentration 10 nM [2]
COc1cc2c(cc1OC)CN(CCc1ccc(NC(=O)c3ccccc3NC(=O)c3cccc(F)c3)cc1)CC2 [compound 9500, 2-(3-Fluoro-benzoylamino)-N-{4-[2-(6,7-dimethoxy-3,4-dihydro-1H-isoquinolin-2-yl)-ethyl]-phenyl}-benzamide] | 5000 nM | 9 nM | 5.5 | 97 | 300 | 190 nM | – | –
COc1cc2c(cc1OC)CN(CCc1ccc(NC(=O)c3ccccc3NC(=O)c3ccc(F)cc3)cc1)CC2 [compound 9501, 2-(4-Fluoro-benzoylamino)-N-{4-[2-(6,7-dimethoxy-3,4-dihydro-1H-isoquinolin-2-yl)-ethyl]-phenyl}-benzamide] | 3000 nM | 40 nM | 1.9 | 69 | 183 | 120 nM | – | –
COc1cc2c(cc1OC)CN(CCc1ccc(NC(=O)c3ccccc3NC(=O)c3cccc(C)c3)cc1)CC2 [compound 9503, 2-(3-Methyl-benzoylamino)-N-{4-[2-(6,7-dimethoxy-3,4-dihydro-1H-isoquinolin-2-yl)-ethyl]-phenyl}-benzamide] | 3500 nM | 90 nM | – | – | 36 | 2000 nM | 77 | –
COc1cc2c(cc1OC)CN(CCc1ccc(NC(=O)c3ccccc3NC(=O)c3ccc(C)cc3)cc1)CC2 [compound 9504, 2-(4-Methyl-benzoylamino)-N-{4-[2-(6,7-dimethoxy-3,4-dihydro-1H-isoquinolin-2-yl)-ethyl]-phenyl}-benzamide] | 5000 nM | 60 nM | – | 34 | 150 | 260 nM | 267 | –
COc1cc2c(cc1OC)CN(CCc1ccc(NC(=O)c3ccccc3NC(=O)c3c(F)cccc3F)cc1)CC2 [compound 9514, 2-(2,6-Difluoro-benzoylamino)-N-{4-[2-(6,7-dimethoxy-3,4-dihydro-1H-isoquinolin-2-yl)-ethyl]-phenyl}-benzamide] | 7000 nM | – | – | – | 40 | 250 nM | 120 | –
COc1cccc(C(=O)Nc2ccccc2C(=O)Nc2ccc(CCN3CCc4cc(OC)c(OC)cc4C3)cc2)c1 [compound 9517, 2-(3-Methoxy-benzoclamino)-N-{4-[2-(6,7-dimethoxy-3,4-dihydro-1H-isoquinolin-2-yl)-ethyl]-phenyl}-benzamide] | 2000 nM | 50 nM | – | – | 40 | 400 nM | 120 | –
COc1ccc(C(=O)Nc2ccccc2C(=O)Nc2ccc(CCN3CCc4cc(OC)c(OC)cc4C3)cc2)cc1 [compound 9518, 2-(4-Methoxy-benzoylamino)-N-{4-[2-(6,7-dimethoxy-3,4-dihydro-1H-isoquinolin-2-yl)-ethyl]-phenyl}-benzamide] | 1500 nM | 19 nM | – | – | 120 | 300 nM | 240 | –
COc1cc2c(cc1OC)CN(CCc1ccc(NC(=O)c3ccccc3NC(=O)c3cnc(C)cn3)cc1)CC2 [compound 9527, 5-Methyl-pyrazine-2-carboxylic acid (2-{4-[2-(6,7-dimethoxy-3,4-dihydro-1H-isoquinolin-2-yl)-ethyl]-phenylcarbamoyl}-phenyl)-amide] | 4500 nM | 7 nM | 11 | 50 | 103 | 52 nM | 120 | 1.5
COc1cc2c(cc1OC)CN(CCc1ccc(NC(=O)c3ccccc3NC(=O)c3cnc4ccccc4n3)cc1)CC2 [compound 9531, Quinoxaline-2-carboxylic. acid (2-{4-[2-(6,7-dimethoxy-3,4-dihydro-1H-isoquinolin-2-yl)-ethyl]-phenylcarbamoyl}-phenyl)-amide] | 1100 nM | 5 nM | 120 | 150 | 160 | 35 nM | – | 30
COc1cc2c(cc1OC)CN(CCc1ccc(NC(=O)c3ccccc3NC(=O)c3ccccc3O)cc1)CC2 [compound 9535] | 2600 nM | 15 nM | – | 32 | 128 | 450 nM | – | –
COc1cc2c(cc1OC)CN(CCc1ccc(NC(=O)c3ccccc3NC(=O)c3ccc(Cl)c(Cl)c3)cc1)CC2 [compound 9536, 2-(3,4-Dichloro-benzoylamino)-N-{4-[2-(6,7-dimethoxy-3,4-dihydro-1H-isoquinolin-2-yl)-ethyl]-phenyl}-benzamide] | 2650 nM | 15 nM | – | 32 | 128 | 450 nM | – | –
COc1cc2c(cc1OC)CN(CCc1ccc(NC(=O)c3ccccc3NC(=O)c3ccc(C)c(C)c3)cc1)CC2 [compound 9538, 2-(3,4-Dimethyl-benzoylamino)-N-{4-[2-(6,7-dimethoxy-3,4-dihydro-1H-isoquinolin-2-yl)-ethyl]-phenyl}-benzamide] | 2300 nM | 14 nM | – | 43 | 128 | 220 nM | – | –
COc1cc2c(cc1OC)CN(CCc1ccc(NC(=O)c3ccccc3NC(=O)c3cc4ccccc4o3)cc1)CC2 [compound 9539, Benzofuran-2-carboxylic acid (2-{4-[2-(6,7-dimethoxy-3,4-dihydro-1H-isoquinolin-2-yl)-ethyl]-phenylcarbamoyl}-phenyl)-amide] | 1700 nM | 11 nM | – | 32 | 128 | 220 nM | – | –
COc1cc2c(cc1OC)CN(CCc1ccc(NC(=O)c3ccc([N+](=O)[O-])cc3NC(=O)c3cnc4ccccc4n3)cc1)CC2 [compound 9541, Quinoxaline-2-carboxylic acid (2-{4-(2-(6,7-dimethoxy-3,4-dihydro-1H-isoquinolin-2-yl)-ethyl]-phenylcarbamoyl}-5-nitro-phenyl)-amide] | 860 nM | 6 nM | 150 | 160 | 160 | 20 nM | – | 75
COc1cc2c(cc1OC)CN(CCc1ccc(NC(=O)c3ccc(NO)cc3NC(=O)c3cnc4ccccc4n3)cc1)CC2 [compound 9542, Quinoxaline-2-carboxylic acid (2-{4-[2-(6,7-dimethoxy-3,4-dihydro-1H-isoquinolin-2-yl)-ethyl]-phenylcarbamoyl}-5-hydroxyamino-phenyl)-amide] | 1900 nM | 14 nM | – | 128 | 160 | 130 nM | – | –
